Reference: US20250161180A1, “NOVEL USE OF 4-AMIDINO BENZYLAMINES” (DSM IP Assets B.V., priority 2022, published 2025)

Test system: collagen type 1
Assay: in vitro dermal fibroblast collagen assay (collagen 1 immunolabeling, flow cytometry)
Format: cell-based, human
Details: for Collagen 1 expression relative to untreated (%): normal human dermal fibroblasts, 72 hours, mean (n = 4), untreated = 100%
Method: Amidinobenzyl Benzylsulfonyl D-Seryl Homophenylalaninamide Acetate (ABSHA) was evaluated for its effect on collagen type 1. This was done using an in vitro dermal fibroblast collagen assay.
Normal human dermal fibroblasts were seeded in cell culture medium (Dulbecco's Modified Eagle Medium supplemented with 10% serum and 1% antibiotics) and allowed to adhere in a humidified cell incubator maintaining 37° C. and 5% CO2. Afterwards, the cells were starved with culture medium without serum for 16-24 hours to synchronize the cells their cell cycle. The starvation medium was removed and cell culture medium+SYN®-UP at various concentrations was added to the cells. The cells were treated for 72 hours. The cells were then fixated and immunolabeled with antibodies specific for collagen 1. These labeled cells were analyzed using flow cytometry and compared to the untreated ones (medium without SYN®-UP).
Table 1. […] Data are normalized to the untreated control (100%) and expressed as the mean±SD (n=4).

N=C(N)c1ccc(CNC(=O)C(CCc2ccccc2)NC(=O)C(CO)NS(=O)(=O)Cc2ccccc2)cc1 [ABSHA, Amidinobenzyl Benzylsulfonyl D-Seryl Homophenylalaninamide Acetate]
effect on collagen type 1 expression (in words) (in vitro dermal fibroblast collagen assay): increases collagen expression
Collagen 1 expression relative to untreated (%) (1 μM): 144%
Collagen 1 expression relative to untreated (%) (5 μM): 160%
Collagen 1 expression relative to untreated (%) (25 μM): 185%
Collagen 1 expression relative to untreated (%) (concentration printed only as "μM" (figure missing)): 188%
